SMILES strings stand for the structures.

As a reminder, the EC50 is the concentration needed to bring the measured effect to its halfway point. The Emax is the greatest response seen or fitted, relative to the assay's reference.

This experiment concerns the target T1, human mAChR M1 (Homo sapiens, UniProt P11229).
T1 sequence (P11229 1-460): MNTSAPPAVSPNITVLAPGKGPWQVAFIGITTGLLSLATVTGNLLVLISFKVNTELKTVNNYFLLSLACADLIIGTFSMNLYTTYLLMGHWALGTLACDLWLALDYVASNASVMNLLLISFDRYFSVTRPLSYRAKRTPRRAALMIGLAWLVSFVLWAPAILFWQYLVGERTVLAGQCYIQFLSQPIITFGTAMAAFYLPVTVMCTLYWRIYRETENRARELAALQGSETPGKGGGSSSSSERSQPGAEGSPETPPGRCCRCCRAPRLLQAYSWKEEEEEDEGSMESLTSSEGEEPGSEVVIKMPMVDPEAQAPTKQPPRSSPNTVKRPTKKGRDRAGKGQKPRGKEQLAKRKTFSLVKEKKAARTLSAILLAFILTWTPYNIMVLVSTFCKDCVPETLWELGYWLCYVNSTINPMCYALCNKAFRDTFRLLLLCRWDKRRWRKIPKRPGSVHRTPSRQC
The experiment is described as follows: mAChR M1 cell-based functional assay (calcium mobilization, PAM mode). The note with it: CHO-K1 cells stably expressing hM1, calcium flux (Fluo-4); for EC50: concentration-dependent increase in the EC20 acetylcholine response; for Emax: potentiation of EC20 acetylcholine response. An excerpt: Chinese hamster ovary (CHO-K1) cells stably expressing rat (r)M1 were purchased from the American Type Culture Collection and cultured according to their indicated protocol. CHO cells stably expressing human (h)M2, hM3, and hM5 were described previously (Levey, et al., 1991); hM1 and hM4 cDNAs were purchased from Missouri S&T cDNA Resource; rM4 cDNA was provided by T. I. Bonner (National Institutes of Health, Bethesda, MD). rM2 and rM3 were cloned from a rat brain cDNA library and sequence verified. hM1, rM2, rM3, hM4, and rM4 cDNAs were used to stably transfect CHO-K1 cells purchased from the American Type Culture Collection using Lipofectamine2000. To make stable rM2, hM2, rM3, hM4, and rM4 cell lines for use in calcium mobilization assays, these cells also were stably transfected with a chimeric G-protein (Gqi5) (provided by B. R. Conklin, University of California, San Francisco) using Lipofectamine 2000. rM1, hM1, rM3, hM3, rM5, and hM5 cells were grown in Ham's F-12 medium containing 10% heat-inactivated fetal bovine serum (FBS), 20 mM HEPES, and 50 μg/mL G418 sulfate. rM2-Gqi5, hM2-Gqi5, and hM4-Gqi5 cells were grown in the same medium also containing 500 μg/mL Hygromycin B. Stable rM4-Gqi5 cells were grown in DMEM containing 10% heat-inactivated FBS, 20 mM HEPES, 400 μg/mL G418 sulfate, and 500 μg/mL Hygromycin B.
For high throughput measurement of agonist-evoked increases in intracellular calcium, CHO-K1 cells stably expressing muscarinic receptors were plated in growth medium lacking G418 and hygromycin at 15,000 cells/20 μL/well in Greiner 384-well black-walled, tissue culture (TC)-treated, clear-bottom plates (VWR). Cells were incubated overnight at 37° C. and 5% CO2. The next day, cells were washed using an ELX 405 (BioTek) with four washes (80 μL) of assay buffer then aspirated to 20 μL. Next, 20 μL of 16 μM Fluo-4/acetoxymethyl ester (Invitrogen, Carlsbad, CA) prepared as a 2.3 mM stock in DMSO and mixed in a 1:1 ratio with 10% (w/v) Pluronic F-127 and diluted in assay buffer was added to the wells and the cell plates were incubated for 50 min at 37° C. and 5% CO2. Dye was removed by washing with the ELX 405 (four […], washes of assay buffer) then aspirated to 20 μL. Compound master plates were formatted in an 11 point CRC format (1:3 dilutions) in 100% DMSO with a starting concentration of 10 mM using the BRAVO liquid handler (Agilent). Test compound CRCs were then transferred to daughter plates (240 nL) using the Echo acoustic plate reformatter (Labcyte, Sunnyvale, CA) and then diluted into assay buffer (40 μL) to a 2× stock using a Thermo Fisher Combi (Thermo Fisher Scientific, Waltham, MA).
Calcium flux was measured using the Functional Drug Screening System (FDSS) 6000 (Hamamatsu Corporation, Tokyo, Japan) as an increase in the fluorescent static ratio. Compounds were applied to cells (20 μL, 2×) using the automated system of the FDSS 6000 at 4 s into the 300 s protocol and the data were collected at 1 Hz. At 144 s into the 300 s protocol, 10 μL of an EC20 concentration of the muscarinic receptor agonist acetylcholine was added (5×), followed by the addition of 12 μL an EC80 concentration of acetylcholine at the 230 s time point (5×). Agonist activity was analyzed as a concentration-dependent increase in calcium mobilization upon compound addition. Emax values for agonist activity are expressed relative to the maximum for acetylcholine. Positive allosteric modulator activity was analyzed as a concentration-dependent increase in the EC20 acetylcholine response. Antagonist activity was analyzed as a concentration-dependent decrease in the EC80 acetylcholine response. Concentration-response curves were generated using a four-parameter logistical equation in XLfit curve fitting software (IDBS, Bridgewater, NJ) for Excel (Microsoft, Redmond, WA) or Prism (GraphPad Software, Inc., San Diego, CA). […]
For orientation: Calcium assays in cells follow changes in intracellular calcium, usually with a dye or a luminescent sensor.

As for `Cc1c(Cc2ccc(-c3ccn(C)n3)cc2)cc(C(=O)N[C@H]2CCCC[C@@H]2O)c2c1OCO2` [Compound 21, N-[(1S,2S)-2-hydroxycyclohexyl]-7-methyl-6-[[4-(1-methylpyrazol-3-yl)phenyl]methyl]-1,3-benzodioxole-4-carboxamide], the half-maximal effective concentration (EC50) turned out to be 410 nM and the Emax amounted to 80%.

With `[2H]C1([2H])Oc2c(C(=O)N[C@H]3CCOC[C@@H]3O)cc(Cc3ccc(-n4cccn4)cc3)c(C)c2O1` [Compound 22, 6-(4-(1H-pyrazol-1-yl)benzyl)-N-((3R,4S)-3-hydroxytetrahydro-2H-pyran-4-yl)-7-methylbenzo[d][1,3]dioxole-2,2-d2-4-carboxamide], the EC50 turned out to be 44 nM and the Emax was 72%.

As for `[2H]C1([2H])Oc2c(C(=O)N[C@H]3CCCC[C@@H]3O)cc(Cc3ccc(-n4cccn4)cc3)c(C)c2O1` [Compound 23, 6-(4-(1H-pyrazol-1-yl)benzyl)-N-((1S,2S)-2-hydroxycyclohexyl)-7-methylbenzo[d][1,3]dioxole-2,2-d2-4-carboxamide], the EC50 turned out to be 210 nM and the Emax amounted to 75%.

In the case of `[2H]C1([2H])Oc2c(C(=O)N[C@H]3CCC[C@@H]3O)cc(Cc3ccc(-n4cccn4)cc3)c(C)c2O1` [Compound 24, 6-(4-(1H-pyrazol-1-yl)benzyl)-N-((1S,2S)-2-hydroxycyclopentyl)-7-methylbenzo[d][1,3]dioxole-2,2-d2-4-carboxamide], the EC50 turned out to be 1000 nM and the Emax came out at 70%.

Source of the values: patent US12065433B2, “Positive allosteric modulators of the muscarinic acetylcholine receptor M1” (Vanderbilt University, priority 2018, dated 2024).
